Reference: patent US10428074B2, “Pyrrole heteroaryl ring derivative and method of use thereof” (Jiangsu Hengrui Medicine Co., Ltd., priority 2011, dated 2019)

System: human erythroid leukemia cell line TF-1
Test: Proliferation inhibition assay on TF-1 cells mediated by IL-4
Format: cell-based
Conditions: 10 ng/mL IL-4, 72 hours
Text: The following in vitro assay is to determine the activity of the compounds of the present invention for inhibiting the proliferation of human erythroid leukemia cell line TF-1.
The activity is represented by the IC50 value, which can not only reflect the activity of a test compound for inhibiting JAK2 and JAK3 kinase, but can also reflect the selectivity of a test compound for JAK2 and JAK3 kinase.
The general procedures of the assay are given as follows: first, the TF-1 cells (purchased from ATCC, Catalog number: CRL 2003) were seeded in a 96-well cell culture plate at a suitable cell concentration (8000 cells/mL medium), and 10 ng/mL IL-4 (Invitrogen, Catalog Number: PHC0044) were added to each well. Then 10× serial concentration gradient of test compounds solutions (10000, 1000, 100, 10, 1 and 0.1 nM) were prepared, and then the 10× compound solutions prepared above were added to the 96-well cell culture plate containing IL-4. After the cell plates were cultured continuously for 72 hours, the activity of the test compounds for inhibiting the cell proliferation was determined by using a Cell Counting Kit-8 (purchased from Dojindo, Catalog Number: CK04). IC50 values were calculated from the data of the inhibition rates at various concentrations of the test compounds.

With `CN(c1ncnc2[nH]ccc12)[C@@H]1C[C@@H]2CN(C(=O)OC(C)(C)C)C[C@]2(C)C1` (racemic) [Example 1, (3aR,5R,6aS/3aS,5S,6aR)-tert-butyl-3a-methyl-5-(methyl(7H-pyrrolo[2,3-d]pyrimidin-4-yl)amino)hexahydro cyclopenta[c]pyrrole-2(1H)-carboxylate] as the compound, how does the IC50 read?
The IC50 was 196 nM.

`CN(c1ncnc2[nH]ccc12)[C@@H]1C[C@@H]2CN(C(=O)Nc3nncs3)C[C@@H]2C1` [Example 73, (3aR,5R,6aS)-5-(methyl(7H-pyrrolo[2,3-d]pyrimidin-4-yl)amino)-N-(1,3,4-thiadiazol-2-yl)hexahydrocyclopenta[c] pyrrole-2(1H)-carboxamide] was tested. Which IC50 did it give?
Its IC50 is 476 nM.

For `CC(=O)N1C[C@H]2C[C@H](N(C)c3ncnc4[nH]ccc34)C[C@H]2C1` [Example 11, 1-((3aR,5S,6aS)-5-(Methyl(7H-pyrrolo[2,3-d]pyrimidin-4-yl)amino)hexahydrocyclopenta[c]pyrrol-2(1H)-yl)ethanone], which IC50 is on record?
Its IC50 is 507 nM.

`COc1nsc(NC(=O)N2C[C@H]3C[C@@H](N(C)c4ncnc5[nH]ccc45)C[C@H]3C2)n1` [Example 74, (3aR,5R,6aS)-N-(3-methoxy-1,2,4-thiadiazol-5-yl)-5-(methyl(7H-pyrrolo[2,3-d]pyrimidin-4-yl)amino)hexahydrocyclopenta [c]pyrrole-2(1H)-carboxamide] was tested. Which IC50 did it give?
Its IC50 is 546 nM.

`CN(c1ncnc2[nH]ccc12)[C@H]1C[C@@H]2CN(C(=O)OC(C)(C)C)C[C@@H]2C1` [Example 5, (3aR,5S,6aS)-tert-Butyl 5-(methyl(7H-pyrrolo[2,3-d]pyrimidin-4-yl)amino)hexahydro cyclopenta[c]pyrrole-2(1H)-carboxylate] was tested. Which IC50 did it give?
The IC50 was 133 nM.

Which IC50 does the source give for `CN(c1ncnc2[nH]c(F)cc12)[C@H]1C[C@@H]2CN(C(=O)CO)C[C@@H]2C1` [Example 129, 1-((3aR,5S,6aS)-5-((6-fluoro-7H-pyrrolo[2,3-d]pyrimidin-4-yl)(methyl)amino)hexahydrocyclopenta[c]pyrrol-2(1H)-yl)-2-hydroxyethanone] here?
Its IC50 is 539 nM.

Which IC50 does the source give for `CN(c1ncnc2[nH]ccc12)[C@H]1C[C@@H]2CN(C(=O)Nc3nc(C4CC4)ns3)C[C@@H]2C1` [Example 125, (3aR,5S,6aS)-N-(3-cyclopropyl-1,2,4-thiadiazol-5-yl)-5-(methyl(7H-pyrrolo[2,3-d]pyrimidin-4-yl)amino) hexahydrocyclopenta [c]pyrrole-2(1H)-carboxamide] here?
The IC50 was 14 nM.

With `Cc1noc(N2C[C@H]3C[C@H](N(C)c4ncnc5[nH]ccc45)C[C@H]3C2)n1` [Example 61, N-methyl-N-((3aR,5S,6aS)-2-(3-methyl-1,2,4-oxadiazol-5-yl)octahydrocyclopenta[c]pyrrol-5-yl)-7H-pyrrolo[2,3-d] pyrimidin-4-amine] as the compound, how does the IC50 read?
The IC50 was 507 nM.

Which IC50 does the source give for `CN(c1ncnc2[nH]ccc12)C1C[C@@H]2CCN(C(=O)CC#N)C[C@@H]2C1` (stereo partly drawn) [Example 39, 3-((4aS,7aR)-6-(Methyl(7H-pyrrolo[2,3-d]pyrimidin-4-yl)amino)hexahydro-1H-cyclopenta[c]pyridin-2(3H,4H,4aH,5H,6H,7H,7aH)-yl)-3-oxopropanenitrile] here?
Its IC50 is 419 nM.

System: T cells
Test: Proliferation inhibition assay on T cells (PBMC, anti-CD3, IL-2)
Format: cell-based, human
Conditions: Homo sapiens, T-cell, 72 h, IL-2 10 ng/mL
Text: The following in vitro assay is to determine the activity of the compounds of the present invention for inhibiting the proliferation of T cells.
The activity is represented by the IC50 value.
The general procedures of the assay are given as follows: first, the PBMC cell line (purchased from Shanghai Blood Center) was centrifuged, the supernatant was removed, and the cells counted. […] Then, the cells were washed 3 times, resuspended, diluted to 2×10^6/mL, and then mixed with recombinant human IL-2 (purchased from Peprotech, Catalog Number: 200-02) to a concentration of 10 ng/mL, and cultured for another 3 days. The cells were washed again 3 times, and diluted to 5×10^5/mL. 80 μL of the cells were seeded in each well of a 96-well cell culture plate. […] To he control wells, 10 μL culture medium were added. The plate was placed in an incubator. After incubating for 1 hr, negative control wells were mixed with 10 μL of culture medium, and the rest of the wells were mixed with IL-2 to a concentration of 10 ng/mL, and incubated continuously for 72 hours. […] IC50 values were calculated from the data of inhibition rates at various concentrations of the test compounds.

For `COc1nsc(NC(=O)N2C[C@H]3C[C@@H](N(C)c4ncnc5[nH]ccc45)C[C@H]3C2)n1` [Example 74, (3aR,5R,6aS)-N-(3-methoxy-1,2,4-thiadiazol-5-yl)-5-(methyl(7H-pyrrolo[2,3-d]pyrimidin-4-yl)amino)hexahydrocyclopenta [c]pyrrole-2(1H)-carboxamide], which IC50 is on record?
Its IC50 is 68 nM.

For `CN(c1ncnc2[nH]ccc12)[C@@H]1CC2CNC(=O)CC2C1` (stereo partly drawn) [Example 148, (6S)-6-(methyl(7H-pyrrolo[2,3-d]pyrimidin-4-yl)amino) hexahydro-1H-cyclopenta[c] pyridin-3(2H)-one], which IC50 is on record?
Its IC50 is 48 nM.

For `CN(c1ncnc2[nH]ccc12)[C@H]1C[C@@H]2CN(CC(F)(F)F)C[C@@H]2C1` [Example 56, N-methyl-N-((3aR,5S,6aS)-2-(2,2,2-trifluoroethyl)octahydrocyclopenta [c]pyrrol-5-yl)-7H-pyrrolo[2,3-d]pyrimidin-4-amine], which IC50 is on record?
The IC50 was 119 nM.

For `CN(c1ncnc2[nH]ccc12)[C@H]1C[C@@H]2CN(CCC#N)C[C@@H]2C1` [Example 27, 3-((3 aR,5S,6aS)-5-(Methyl(7H-pyrrolo[2,3-d]pyrimidin-4-yl)amino)hexahydrocyclopenta[c]pyrrol-2(1H)-yl)propanenitrile], which IC50 is on record?
The IC50 was 253 nM.

For `CN(c1ncnc2[nH]ccc12)[C@H]1C[C@@H]2CN(S(=O)(=O)C3CC3)C[C@@H]2C1` [Example 15, N-((3aR,5S,6aS)-2-(Cyclopropylsulfonyl)octahydrocyclopenta[c]pyrrol-5-yl)-N-methyl-7H-pyrrolo[2,3-d]pyrimidin-4-amine], which IC50 is on record?
Its IC50 is 853 nM.

Which IC50 does the source give for `COC(=O)CN1C[C@H]2C[C@H](N(C)c3ncnc4[nH]ccc34)C[C@H]2C1` [Example 24, Methyl 2-((3aR,5S,6aS)-5-(methyl(7H-pyrrolo[2,3-d]pyrimidin-4-yl)amino)hexahydrocyclopenta[c]pyrrol-2(1H)-yl)acetate] here?
Its IC50 is 851 nM.

With `CN(c1ncnc2[nH]ccc12)[C@@H]1C[C@@H]2CN(CCC#N)C[C@@H]2C1` [Example 68, 3-((3aR,5R,6aS)-5-(methyl(7H-pyrrolo[2,3-d]pyrimidin-4-yl)amino)hexahydrocyclopenta[c]pyrrol-2(1H)-yl)propanenitrile] as the compound, how does the IC50 read?
Its IC50 is 824 nM.

`CN(c1ncnc2[nH]ccc12)[C@H]1C[C@H]2CNC(=O)C[C@H]2C1` [Example 40, (4aR,6R,7aR)-6-(Methyl(7H-pyrrolo[2,3-d]pyrimidin-4-yl)amino) hexahydro-1H-cyclopenta[c]pyridin-3(2H)-one] was tested. Which IC50 did it give?
The IC50 was 48 nM.

How did the IC50 turn out when `CN(c1ncnc2[nH]ccc12)[C@H]1C[C@@H]2CN(C(=O)CNS(C)(=O)=O)C[C@@H]2C1` [Example 21, N-(2-((3aR,5S,6aS)-5-(Methyl(7H-pyrrolo[2,3-d]pyrimidin-4-yl)amino)hexahydrocyclopenta[c]pyrrol-2(1H)-yl)-2-oxoethyl)methanesulfonamide] was run?
Its IC50 is 892 nM.

Same assay, conditions: Homo sapiens, T-cell; IL-2 10 ng/mL, 72 hours

Which IC50 does the source give for `CN(c1ncnc2[nH]ccc12)[C@@H]1C[C@@H]2CN(C(=O)Nc3nncs3)C[C@@H]2C1` [Example 73, (3aR,5R,6aS)-5-(methyl(7H-pyrrolo[2,3-d]pyrimidin-4-yl)amino)-N-(1,3,4-thiadiazol-2-yl)hexahydrocyclopenta[c] pyrrole-2(1H)-carboxamide] here?
The IC50 was 518 nM.

Which IC50 does the source give for `CC(=O)N1C[C@H]2C[C@H](N(C)c3ncnc4[nH]ccc34)C[C@H]2C1` [Example 11, 1-((3aR,5S,6aS)-5-(Methyl(7H-pyrrolo[2,3-d]pyrimidin-4-yl)amino)hexahydrocyclopenta[c]pyrrol-2(1H)-yl)ethanone] here?
The IC50 was 705 nM.

For `CN(c1ncnc2[nH]ccc12)[C@@H]1C[C@@H]2CCN(C(=O)Nc3nncs3)C[C@@H]2C1` [Example 150, (4aS,6R,7aR)-6-(methyl(7H-pyrrolo[2,3-d]pyrimidin-4-yl)amino)-N-(1,3,4-thiadiazol-2-yl)hexahydro-1H-cyclopenta[c]pyridine-2(3H)-carboxamide], which IC50 is on record?
The IC50 was 221 nM.

For `CN(c1ncnc2[nH]ccc12)[C@H]1C[C@@H]2CN(C(=O)CCC#N)C[C@@H]2C1` [Example 22, 4-((3aR,5S,6aS)-5-(Methyl(7H-pyrrolo[2,3-d]pyrimidin-4-yl)amino)hexahydrocyclopenta[c]pyrrol-2(1H)-yl)-4-oxobutanenitrile], which IC50 is on record?
Its IC50 is 281 nM.

With `CN(c1ncnc2[nH]ccc12)[C@@H]1C[C@@H]2CN(C(=O)CO)C[C@@H]2C1` [Example 23, 2-Hydroxy-1-((3aR,5R,6aS)-5-(methyl(7H-pyrrolo[2,3-d]pyrimidin-4-yl)amino)hexahydrocyclopenta[c]pyrrol-2(1H)-yl)ethanone] as the compound, how does the IC50 read?
The IC50 was 543 nM.

With `CCC(=O)N1C[C@H]2C[C@H](N(C)c3ncnc4[nH]ccc34)C[C@H]2C1` [Example 84, 1-((3aR,5S,6aS)-5-(methyl(7H-pyrrolo[2,3-d]pyrimidin-4-yl)amino)hexahydrocyclopenta[c]pyrrol-2(1H)-yl)propan-1-one] as the compound, how does the IC50 read?
Its IC50 is 509 nM.

With `CCc1nsc(NC(=O)N2C[C@H]3C[C@H](N(C)c4ncnc5[nH]ccc45)C[C@H]3C2)n1` [Example 121, (3aR,5S,6aS)-N-(3-ethyl-1,2,4-thiadiazol-5-yl)-5-(methyl(7H-pyrrolo[2,3-d]pyrimidin-4-yl)amino)hexahydrocyclopenta[c] pyrrole-2(1H)-carboxamide] as the compound, how does the IC50 read?
Its IC50 is 24 nM.

How did the IC50 turn out when `COc1cncc(NC(=O)N2C[C@H]3C[C@H](N(C)c4ncnc5[nH]ccc45)C[C@H]3C2)c1` [Example 109, (3aR,5S,6aS)-N-(5-methoxypyridin-3-yl)-5-(methyl(7H-pyrrolo[2,3-d]pyrimidin-4-yl)amino)hexahydrocyclopenta[c] pyrrole-2(1H)-carboxamide] was run?
Its IC50 is 762 nM.

`CN(c1ncnc2[nH]ccc12)[C@H]1C[C@@H]2CN(C(=O)C3CC3)C[C@@H]2C1` [Example 13, Cyclopropyl((3aR,5S,6aS)-5-(methyl(7H-pyrrolo[2,3-d]pyrimidin-4-yl)amino)hexahydrocyclopenta[c]pyrrol-2(1H)-yl)methanone] was tested. Which IC50 did it give?
The IC50 was 754 nM.

Same assay, conditions: IL-2 10 ng/mL, 72 hours; read-out: IC50(T cell)

With `CN(c1ncnc2[nH]ccc12)[C@@H]1C[C@H]2CN(C(=O)CO)C[C@@]2(C)C1` (racemic) [Example 14, 2-Hydroxy-1-((3aS,5R,6aR/3aS,5R,6aR)-3a-methyl-5-(methyl(7H-pyrrolo[2,3-d]pyrimidin-4-yl)amino)hexahydrocyclopenta[c]pyrrol-2(1H)-yl)ethanone] as the compound, how does the IC50 read?
The IC50 was 712 nM.
